Tests used:
[1] = system: ZEAMX (Corn, Field); test: Postemergence herbicidal evaluation; assay type: in vivo, Zea mays, L.
In short: (§1)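 Visual 0–9 injury scores versus control plants, covering stand, vigour, malformation, size, chlorosis and general appearance, taken four to five weeks post-spray and averaged over replicate tests. Plants were sprayed at roughly two weeks old and held on greenhouse benches.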

[2] = system: GLXMAW (Soybean, Williams); test: Preemergence herbicidal evaluation; assay type: in vivo, Glycine max, (L.) Merr. cv Williams; settings: preemergence, rated 4-5 weeks after treatment
[3] = system: ECHORC (Echinochloa oryzoides); test: Flooded paddy, preemergence weed control; assay type: in vivo, Echinochloa oryzoides (Ard.) Fritsch.; settings: rated 3-4 weeks after treatment, 0-9 rating scale
In short: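 Greenhouse paddy test, preemergence. Seeds planted in the top 0.5 cm of silt loam soil, which remained flooded at 1.5–3 cm depth. Scored 0-9 by visual comparison with control.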

[4] = system: SAGPY (Sagittaria pygmaea); test: Flooded paddy, postemergence weed control; assay type: in vivo, L.; settings: postemergence weeds, rated 3-4 weeks after treatment
In short: (§2)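 Weeds 3 to 5 cm tall plus rice seedlings at the 1.5 to 2.5 leaf stage were flooded, water held 1.5 to 3 cm above soil. Compounds in 50/50 v/v aqueous/acetone went directly into flood water at about 0.0320 to 0.2500 kg/ha. Greenhouse, 3 to 4 weeks; visual 0-9 rating versus control.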

[5] = system: ORYSAT (Rice, Tebonnet); test: Flooded paddy, post-transplant and postemergence rice tolerance; assay type: in vivo, Oryza sativa, (L.) Tebonnet; settings: post-transplant rice, rated 3-4 weeks after treatment
In short: as §2

[6] = system: ECHORC (Echinochloa oryzoides); test: Flooded paddy, postemergence weed control; assay type: in vivo, Echinochloa oryzoides (Ard.) Fritsch.; settings: postemergence weeds, rated 3-4 weeks after treatment
In short: as §2

[7] = system: IPOHE (Ipomoea hederacea); test: Preemergence herbicidal evaluation; assay type: in vivo, (L.) Jacq.; settings: preemergence, rated 4-5 weeks after treatment
[8] = system: ZEAMX (Corn, Field); test: Preemergence herbicidal evaluation; assay type: in vivo, Zea mays, L.; settings: preemergence, rated 4-5 weeks after treatment
[9] = system: CYPSE (Cyperus serotinus); test: Flooded paddy, postemergence weed control; assay type: in vivo, Rottb.; settings: postemergence weeds, rated 3-4 weeks after treatment
In short: as §2

[10] = system: MOOVA (Monochoria vaginalis); test: Flooded paddy, postemergence weed control; assay type: in vivo, Presl.; settings: postemergence weeds, rated 3-4 weeks after treatment
In short: as §2

[11] = system: ABUTH (Abutilon theophrasti); test: Preemergence herbicidal evaluation; assay type: in vivo, Medic.; settings: preemergence, rated 4-5 weeks after treatment
[12] = system: ORYSAT (Rice, Tebonnet); test: Flooded paddy, post-transplant rice tolerance; assay type: in vivo, Oryza sativa, (L.) Tebonnet; settings: flooded paddy, post-transplant rice, rated 3-4 weeks after treatment, 0-9 rating scale
In short: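 Steps: transplant two ten-day-old seedlings into silt loam; flood to 1.5-3 cm above soil; apply herbicide post-transplant; maintain water on greenhouse benches; rate stand, vigor, malformation, size and chlorosis on a 0-9 visual scale versus control.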

[13] = system: TRZAWR (Wheat, Winter, cv Riband); test: Preemergence herbicidal evaluation; assay type: in vivo, Triticum aestivum; settings: preemergence, rated 4-5 weeks after treatment
In short: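 Steps: mix seeds with potting soil; plant on ~1 inch soil per cup; spray compound in aqueous acetone; hold on greenhouse benches with routine watering; rate 0–9 visually against control at 4–5 weeks.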

[14] = system: ECHCG (Echinochloa crus-galli); test: Postemergence herbicidal evaluation; assay type: in vivo, (L.) Beau
In short: as §1

[15] = system: GLXMAW (Soybean, Williams); test: Postemergence herbicidal evaluation; assay type: in vivo, Glycine max, (L.) Merr. cv Williams
In short: as §1

[16] = system: CYPIR (Cyperus iria); test: Flooded paddy, postemergence weed control; assay type: in vivo; settings: postemergence weeds, rated 3-4 weeks after treatment
Source text: Results of herbicide evaluation are expressed on a rating scale (0-9). The scale is based upon a visual observation of plant stand, vigor, malformation, size, chlorosis and overall plant appearance as compared with a control.
Plastic containers containing weeds which are 3 to 5 cm tall and rice seedlings at the 1.5 to 2.5 leaf stage are flooded with water. The water is maintained at 1.5 to 3 cm above the soil surface for the duration of the experiment. Test compounds are applied as aqueous/acetone mixtures 50/50 v/v directly into the flood water to provide the equivalent of about 0.0320 to 0.2500 kg/ha of active ingredient. The treated containers are placed on greenhouse benches and cared for in accordance with conventional greenhouse procedures. Three to four weeks after treatment, the test is terminated and each container is examined and herbicidal effect rated according to the rating system provided in Example 87. The compounds evaluated are identified in Example 87 and plant species used are identified in Example 89.

## Cn1c(C(F)(F)F)cc(=O)n(-c2ccc3snc(-c4ncccn4)c3c2)c1=O [Compound 12, 1-methyl-3-[3-(2-pyrimidinyl)-1,2-benzisothiazol-5-yl]-6-(trifluoromethyl)uracil]
[1]; rate 0.0620 kg/ha
  Postemergence herbicidal rating, ZEAMX: 5.5
[2]; Rate 0.2500 kg/ha
  GLXMAW preemergence herbicidal rating: 9.0
[3]; rate 0.1250 kg/ha
  herbicidal rating, ECHORC: 8.7
[4]; 0.1250 kg/ha into flood water
  herbicide rating (0-9) SAGPY: 0.0
[5]; 0.1250 kg/ha into flood water
  herbicide rating (0-9) ORYSAT (rice tolerance): 2.0
[6]; 0.1250 kg/ha into flood water
  herbicide rating (0-9) ECHORC: 1.0
[7]; Rate 0.2500 kg/ha
  IPOHE preemergence herbicidal rating: 9.0
[8]; Rate 0.2500 kg/ha
  ZEAMX preemergence herbicidal rating: 8.5
[9]; 0.1250 kg/ha into flood water
  herbicide rating (0-9) CYPSE: 0.0
[10]; 0.1250 kg/ha into flood water
  herbicide rating (0-9) MOOVA: 2.0
[11]; Rate 0.2500 kg/ha
  ABUTH preemergence herbicidal rating: 9.0
[12]; rate 0.1250 kg/ha
  herbicidal rating, ORYSAT (rice tolerance): 7.0
[13]; Rate 0.2500 kg/ha
  TRZAWR preemergence herbicidal rating: 9.0
[14]; rate 0.0620 kg/ha
  Postemergence herbicidal rating, ECHCG: 4.0
[15]; rate 0.0620 kg/ha
  Postemergence herbicidal rating, GLXMAW: 8.5
[16]; 0.1250 kg/ha into flood water
  herbicide rating (0-9) CYPIR: 9.0

## Cc1ccc(-c2nsc3ccc(-n4c(=O)cc(C(F)(F)F)n(C)c4=O)cc23)s1 [Compound 21, 1-methyl-3-[3-(5-methyl-2-thienyl)-1,2-benzisothiazol-5-yl]-6-(trifluoromethyl)uracil]
[1]; rate 0.0320 kg/ha
  Postemergence herbicidal rating, ZEAMX: 5.0
[1]; rate 0.0620 kg/ha
  Postemergence herbicidal rating, ZEAMX: 5.5
[1]; rate 0.1250 kg/ha
  Postemergence herbicidal rating, ZEAMX: 5.5
[2]; Rate 0.0620 kg/ha
  GLXMAW preemergence herbicidal rating: 0.0
[2]; Rate 0.1250 kg/ha
  GLXMAW preemergence herbicidal rating: 0.0
[2]; Rate 0.2500 kg/ha
  GLXMAW preemergence herbicidal rating: 2.0
[3]; rate 0.0080 kg/ha
  herbicidal rating, ECHORC: 4.0
[3]; rate 0.0320 kg/ha
  herbicidal rating, ECHORC: 8.5
[3]; rate 0.1250 kg/ha
  herbicidal rating, ECHORC: 9.0
[4]; 0.0320 kg/ha into flood water
  herbicide rating (0-9) SAGPY: 0.0
[4]; 0.0620 kg/ha into flood water
  herbicide rating (0-9) SAGPY: 0.0
[4]; 0.1250 kg/ha into flood water
  herbicide rating (0-9) SAGPY: 0.0
[5]; 0.0320 kg/ha into flood water
  herbicide rating (0-9) ORYSAT (rice tolerance): 4.0
[5]; 0.0620 kg/ha into flood water
  herbicide rating (0-9) ORYSAT (rice tolerance): 7.0
[5]; 0.1250 kg/ha into flood water
  herbicide rating (0-9) ORYSAT (rice tolerance): 7.0
[6]; 0.0320 kg/ha into flood water
  herbicide rating (0-9) ECHORC: 6.0
[6]; 0.0620 kg/ha into flood water
  herbicide rating (0-9) ECHORC: 9.0
[6]; 0.1250 kg/ha into flood water
  herbicide rating (0-9) ECHORC: 9.0
[7]; Rate 0.0620 kg/ha
  IPOHE preemergence herbicidal rating: 0.0
[7]; Rate 0.1250 kg/ha
  IPOHE preemergence herbicidal rating: 2.0
[7]; Rate 0.2500 kg/ha
  IPOHE preemergence herbicidal rating: 5.0
[8]; Rate 0.0620 kg/ha
  ZEAMX preemergence herbicidal rating: 1.0
[8]; Rate 0.1250 kg/ha
  ZEAMX preemergence herbicidal rating: 3.5
[8]; Rate 0.2500 kg/ha
  ZEAMX preemergence herbicidal rating: 4.5
[9]; 0.0320 kg/ha into flood water
  herbicide rating (0-9) CYPSE: 0.0
[9]; 0.0620 kg/ha into flood water
  herbicide rating (0-9) CYPSE: 0.0
[9]; 0.1250 kg/ha into flood water
  herbicide rating (0-9) CYPSE: 0.0
[10]; 0.0320 kg/ha into flood water
  herbicide rating (0-9) MOOVA: 9.0
[10]; 0.0620 kg/ha into flood water
  herbicide rating (0-9) MOOVA: 9.0
[10]; 0.1250 kg/ha into flood water
  herbicide rating (0-9) MOOVA: 9.0
[11]; Rate 0.0620 kg/ha
  ABUTH preemergence herbicidal rating: 4.0
[11]; Rate 0.1250 kg/ha
  ABUTH preemergence herbicidal rating: 7.5
[11]; Rate 0.2500 kg/ha
  ABUTH preemergence herbicidal rating: 9.0
[12]; rate 0.0080 kg/ha
  herbicidal rating, ORYSAT (rice tolerance): 0.0
[12]; rate 0.0320 kg/ha
  herbicidal rating, ORYSAT (rice tolerance): 2.0
[12]; rate 0.1250 kg/ha
  herbicidal rating, ORYSAT (rice tolerance): 3.0
[13]; Rate 0.0620 kg/ha
  TRZAWR preemergence herbicidal rating: 0.0
[13]; Rate 0.1250 kg/ha
  TRZAWR preemergence herbicidal rating: 1.0
[13]; Rate 0.2500 kg/ha
  TRZAWR preemergence herbicidal rating: 2.0
[14]; rate 0.0320 kg/ha
  Postemergence herbicidal rating, ECHCG: 4.0
[14]; rate 0.0620 kg/ha
  Postemergence herbicidal rating, ECHCG: 4.0
[14]; rate 0.1250 kg/ha
  Postemergence herbicidal rating, ECHCG: 4.0
[15]; rate 0.0320 kg/ha
  Postemergence herbicidal rating, GLXMAW: 5.5
[15]; rate 0.0620 kg/ha
  Postemergence herbicidal rating, GLXMAW: 6.0
[15]; rate 0.1250 kg/ha
  Postemergence herbicidal rating, GLXMAW: 6.0
[16]; 0.0320 kg/ha into flood water
  herbicide rating (0-9) CYPIR: 9.0
[16]; 0.0620 kg/ha into flood water
  herbicide rating (0-9) CYPIR: 9.0
[16]; 0.1250 kg/ha into flood water
  herbicide rating (0-9) CYPIR: 9.0
